Data from patent EP4174174A1, “TAILOR-MADE EXTREMOPHILIC FUNGAL LACCASES” (priority 2021, dated 2023).
Like-named read-outs stand apart in the source and are kept apart here.

Experiments:
Assay type in all cases: biochemical
[1] = molecular target: RY2 laccase (parental enzyme, SEQ ID NO: 1) (basidiomycete PM1, UniProt Q12571)
Description: (§1) Flask production and purification. The S. cerevisiae clones expressing selected laccase variants were grown in duplicate, in 100mL flasks with 30mL expression medium (containing […] and 3% ethanol) (Camarero et al. Applied and Environmental Microbiology 2012, 78,5). […] After 3 days of fermentation, cultures were treated as previously described (De Salas et al. Green Chemistry 2019 21, 5374-5385). Purification of the enzymes by High Pressure Liquid Chromatography (HPLC) was carried out in 3 chromatographic steps: two anion exchange steps using a HiPrep-QFF 16/10 column in a 100mL gradient of 0-40% elution buffer, and a MonoQ-HR 5/5 column in a 30mL gradient of 0-25% elution buffer, followed by size exclusion chromatography with a Superdex75. Fractions containing laccase activity (with 3mM ABTS in 50mM citrate-phosphate pH 3) were pooled, dialyzed in Tris-HCI pH 7 and concentrated after each chromatographic step. Enzyme purification was confirmed by the electrophoretic mobility in SDS-PAGE (12% acrylamide) stained with Coomassie brilliant blue.
(§2) To calculate Km and kcat values the average Vmax was represented versus substrate concentration and fitted to a single rectangular hyperbola function in SigmaPlot (version 14.0) software, where parameter "a" was equal to kcat and parameter "b" was equal to Km.

[2] = molecular target: RY2 laccase variant L2 (+F460M; F392N, F396I, F460M) (basidiomycete PM1, UniProt Q12571, F413N/F417I/F481M, form not given)
RY2 laccase variant L2 (+F460M; F392N, F396I, F460M), sequence (Q12571 entry or part of it F413N/F417I/F481M, form open): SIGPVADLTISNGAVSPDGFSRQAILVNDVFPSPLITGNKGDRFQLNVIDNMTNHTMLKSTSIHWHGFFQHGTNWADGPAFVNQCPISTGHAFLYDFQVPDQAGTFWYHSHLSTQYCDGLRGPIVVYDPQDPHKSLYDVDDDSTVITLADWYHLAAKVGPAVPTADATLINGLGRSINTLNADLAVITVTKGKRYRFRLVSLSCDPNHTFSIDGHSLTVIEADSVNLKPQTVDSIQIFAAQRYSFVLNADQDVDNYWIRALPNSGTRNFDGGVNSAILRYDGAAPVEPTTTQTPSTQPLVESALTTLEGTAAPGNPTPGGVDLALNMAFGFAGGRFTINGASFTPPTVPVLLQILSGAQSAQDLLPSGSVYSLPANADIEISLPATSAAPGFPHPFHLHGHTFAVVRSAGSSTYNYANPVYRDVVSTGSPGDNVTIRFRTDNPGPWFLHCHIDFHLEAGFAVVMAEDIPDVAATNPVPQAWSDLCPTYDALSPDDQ
Description: as §1, §2

[3] = system: RY2 laccase variant L3 (+D263V; F392N, F396I, F460M, D263V); assay: Kinetic constants for the oxidation of ABTS and DMP by pure laccase
Description: as §1, §2

[4] = system: RY2 laccase variant L4 (+A458L; F392N, F396I, F460M, D263V, A458L); assay: as above
Description: as §1, §2

RY2 laccase (parental enzyme, SEQ ID NO: 1), sequence (Q12571 entry or part of it): as the sequence (Q12571 entry or part of it F413N/F417I/F481M, form open) above

| Compound | kcat ([1]; substrate ABTS, pH 3) [s⁻¹] | kcat ([2]; substrate ABTS, pH 3) [s⁻¹] | Km ([3]; substrate ABTS, pH 3) [µM] | kcat ([3]; substrate ABTS, pH 3) [s⁻¹] | Km ([4]; substrate ABTS, pH 3) [µM] | kcat ([4]; substrate ABTS, pH 3) [s⁻¹] | kcat ([1]; substrate DMP, pH 5) [s⁻¹] | kcat ([2]; substrate DMP, pH 8) [s⁻¹] | kcat ([2]; substrate DMP, pH 9) [s⁻¹] | Km ([3]; substrate DMP, pH 8) [µM] | kcat ([3]; substrate DMP, pH 8) [s⁻¹] | Km ([3]; substrate DMP, pH 9) [µM] | kcat ([3]; substrate DMP, pH 9) [s⁻¹] | Km ([3]; substrate DMP, pH 10) [µM] | kcat ([3]; substrate DMP, pH 10) [s⁻¹] | Km ([4]; substrate DMP, pH 8) [µM] | Km ([4]; substrate DMP, pH 9) [µM] | kcat ([4]; substrate DMP, pH 9) [s⁻¹] | Km ([4]; substrate DMP, pH 10) [µM] | kcat ([4]; substrate DMP, pH 10) [s⁻¹] |
| --- | --- | --- | --- | --- | --- | --- | --- | --- | --- | --- | --- | --- | --- | --- | --- | --- | --- | --- | --- | --- |
| CCn1c(=NN=c2sc3cc(S(=O)(=O)O)ccc3n2CC)sc2cc(S(=O)(=O)O)ccc21 [ABTS] | 543 ± 17 | 231 ± 5.6 | 460 ± 40 | 123 ± 5.5 | 680 ± 40 | 136 ± 2.7 |  |  |  |  |  |  |  |  |  |  |  |  |  |  |
| COc1cccc(OC)c1O [DMP, 2,6-dimethoxyphenol] |  |  |  |  |  |  | 123 ± 6 | 89 ± 6.2 | 9.5 ± 0.1 | 1500 ± 120 | 82.3 ± 7.6 | 300 ± 30 | 21.7 ± 1.3 | 27 ± 1 | 0.79 ± 0.03 | 1710 ± 100 | 430 ± 10 | 26 ± 0.28 | 22 ± 2 | 2 ± 0.05 |
